According to ChEMBL document CHEMBL1201862, “PubChem BioAssay data set” (2004):
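Test compounds were applied to cells in 96-well plates for 48 hours at 5 doses. GI50 is the concentration that inhibits growth by half.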 Activity calls are given as the source filed them. Rule as the data show it: active = GI50 up to about 1.1 µM and inactive = higher.

Tests used:
Assay in all cases: NCI tumour cell line growth inhibition, 48 h
A498 = tested on: A498
A549 = tested on: A549
ACHN = tested on: ACHN
CAKI-1 = tested on: CAKI-1
HT-29 = tested on: HT-29
IGROV-1 = tested on: IGROV-1
K562 = tested on: K562
KM12 = tested on: KM12
LOX IMVI = tested on: LOX IMVI
M14 = tested on: M14
NCI-H226 = tested on: NCI-H226
SF-268 = tested on: SF-268
SF-539 = tested on: SF-539
SK-OV-3 = tested on: SK-OV-3
UACC-62 = tested on: UACC-62
HOP-92 = tested on: HOP-92
SR = tested on: SR

Measured: GI50

Cc1ccc(NC(=O)CSc2nnc(Cc3ccccc3)o2)cc1
inactive: A498 > 100 µM | A549 > 100 µM | ACHN > 100 µM | CAKI-1 > 100 µM | HT-29 > 100 µM | IGROV-1 > 100 µM | K562 > 100 µM | KM12 > 100 µM | LOX IMVI > 100 µM | M14 > 100 µM | NCI-H226 > 100 µM | SF-268 > 100 µM | SF-539 > 100 µM | SK-OV-3 > 100 µM | UACC-62 > 100 µM

Cc1ccc(S(=O)(=O)NC(C)C(=O)O)cc1 (centres undefined)
inactive: A498 > 100 µM | A549 > 100 µM | ACHN > 100 µM | CAKI-1 > 100 µM | HOP-92 > 100 µM | HT-29 > 100 µM | IGROV-1 > 100 µM | KM12 > 100 µM | LOX IMVI > 100 µM | M14 > 100 µM | NCI-H226 > 100 µM | SF-268 > 100 µM | SF-539 > 100 µM | SK-OV-3 > 100 µM | UACC-62 > 100 µM

COc1cc2ccc3c4cc(OC)c(OCc5ccccc5)cc4cnc3c2cc1OC
inactive: A498 > 100 µM | A549 > 100 µM | ACHN > 100 µM | CAKI-1 > 100 µM | HT-29 > 100 µM | IGROV-1 > 100 µM | K562 > 100 µM | KM12 > 100 µM | M14 > 100 µM | SF-268 > 100 µM | SK-OV-3 > 100 µM | UACC-62 > 100 µM

Cc1c(/C=N/NS(=O)(=O)c2ccccc2)no[n+]1[O-]
inactive: A498 > 100 µM | A549 > 100 µM | CAKI-1 > 100 µM | HOP-92 > 100 µM | HT-29 > 100 µM | IGROV-1 > 100 µM | K562 > 100 µM | KM12 > 100 µM | M14 > 100 µM | SF-268 > 100 µM | SF-539 > 100 µM | SK-OV-3 > 100 µM | SR > 100 µM | UACC-62 > 100 µM

CCO/C([O-])=C(\C(=O)c1ccccc1)[n+]1c(C)sc2ccccc21
inactive: A498 > 100 µM | A549 45.5 µM | CAKI-1 > 100 µM | HT-29 > 100 µM | IGROV-1 > 100 µM | K562 81.3 µM | KM12 > 100 µM | LOX IMVI 49.2 µM | M14 > 100 µM | NCI-H226 > 100 µM | SF-268 > 100 µM | SF-539 93.3 µM | SK-OV-3 > 100 µM | UACC-62 52.8 µM

COC(=O)C(=O)C(C(=O)C=C(C)C)C(=O)C(=O)Nc1cccc(C(C)=O)c1 (centres undefined)
inactive: A498 > 100 µM | A549 > 100 µM | ACHN > 100 µM | CAKI-1 > 100 µM | HT-29 > 100 µM | IGROV-1 > 100 µM | K562 > 100 µM | KM12 > 100 µM | LOX IMVI > 100 µM | M14 > 100 µM | NCI-H226 > 100 µM | SF-268 > 100 µM | SF-539 > 100 µM | SK-OV-3 > 100 µM | SR > 100 µM | UACC-62 > 100 µM

CCNc1nnc(CSc2nc(-c3ccccc3)c(-c3ccccc3)[nH]2)s1
inactive: A549 28.7 µM | ACHN 23.3 µM | HOP-92 15.8 µM | HT-29 19.6 µM | KM12 9.38 µM | LOX IMVI 16.5 µM | M14 17.5 µM | NCI-H226 13.4 µM | SF-268 15.7 µM | SF-539 18.7 µM | SK-OV-3 20.1 µM | SR 31 µM

CCc1cccc(CC)c1NC(=O)C1=CNC(C)=C(C(=O)Nc2c(CC)cccc2CC)C1c1ccc(O)c(OC)c1 (centres undefined)
inactive: A498 24.7 µM | A549 31.6 µM | ACHN 32.5 µM | CAKI-1 39.8 µM | HOP-92 42.4 µM | HT-29 31.1 µM | IGROV-1 36.8 µM | K562 31.4 µM | KM12 24.6 µM | LOX IMVI 31.5 µM | M14 34.5 µM | NCI-H226 30.1 µM | SF-268 40.6 µM | SF-539 17.6 µM | SK-OV-3 > 100 µM

Nc1ccc(-c2cc(C(=O)Nc3nccs3)nc(S)n2)cc1
inactive: A498 > 100 µM | A549 > 100 µM | ACHN > 100 µM | CAKI-1 > 100 µM | HOP-92 > 100 µM | HT-29 > 100 µM | IGROV-1 > 100 µM | K562 > 100 µM | KM12 > 100 µM | LOX IMVI > 100 µM | M14 > 100 µM | NCI-H226 > 100 µM | SF-268 > 100 µM | SF-539 > 100 µM | SK-OV-3 > 100 µM | UACC-62 > 100 µM

CN1C(=O)N(C)C(N2CCCC2)c2c1nc1ccccn1c2=O (centres undefined)
inactive: A498 34.8 µM | A549 > 100 µM | ACHN > 100 µM | HOP-92 42.7 µM | HT-29 > 100 µM | IGROV-1 > 100 µM | K562 53.1 µM | KM12 > 100 µM | LOX IMVI 36.5 µM | M14 68.9 µM | NCI-H226 > 100 µM | SF-268 > 100 µM | SF-539 33.3 µM | SK-OV-3 78.5 µM | SR 34.8 µM | UACC-62 67 µM

CC(Oc1ccc(OCC2CCCCC2)cc1)C(=O)NCc1ccco1 (centres undefined)
inactive: A498 24.7 µM | A549 34.9 µM | ACHN 36.1 µM | HT-29 22.1 µM | IGROV-1 43.7 µM | K562 42.3 µM | KM12 37.1 µM | LOX IMVI 20.7 µM | M14 18.7 µM | NCI-H226 28.8 µM | SF-268 98.9 µM | SF-539 37.7 µM | SK-OV-3 98.9 µM | UACC-62 56 µM

N#C/N=C(/N)NCc1ccccc1
inactive: A498 > 100 µM | A549 > 100 µM | ACHN > 100 µM | HOP-92 > 100 µM | HT-29 > 100 µM | IGROV-1 > 100 µM | KM12 > 100 µM | LOX IMVI > 100 µM | M14 > 100 µM | NCI-H226 > 100 µM | SF-268 > 100 µM | SF-539 > 100 µM | SK-OV-3 > 100 µM | SR > 100 µM

COCN1COCN/C1=N\C#N
inactive: A498 > 100 µM | A549 > 100 µM | ACHN > 100 µM | CAKI-1 > 100 µM | HOP-92 > 100 µM | HT-29 > 100 µM | IGROV-1 > 100 µM | K562 88.3 µM | KM12 > 100 µM | M14 > 100 µM | NCI-H226 > 100 µM | SF-268 > 100 µM | SF-539 > 100 µM | SK-OV-3 > 100 µM | SR 20.9 µM | UACC-62 > 100 µM

CC(=O)OC[C@]1(C)CCCC2(C)C1CCC1C=C(C)[C@H]3CCC12C3 (some centres undefined)
inactive: A549 65.2 µM | ACHN > 100 µM | CAKI-1 > 100 µM | HT-29 43.3 µM | IGROV-1 > 100 µM | K562 > 100 µM | KM12 52.6 µM | LOX IMVI 47.5 µM | M14 35.2 µM | NCI-H226 > 100 µM | SF-268 37.8 µM | SF-539 25.5 µM | SK-OV-3 44.1 µM | SR > 100 µM | UACC-62 56.9 µM
